By Ki is commonly meant a dissociation constant, usually derived from enzyme kinetics or from competition with a known ligand.

Test [1] concerns the target Mcl-1 (Homo sapiens (Human), UniProt Q07820). Kind of test: TR-FRET binding assay, FITC-Bak peptide and MBP-tagged Mcl-1. As to conditions: read-out: Ki for Inhibition of Mcl-1 by TR-FRET assay. The procedure:
Compounds are diluted in DMSO in a 16-point, semilog serial dilution scheme. […] The plate was mixed and incubated for 3 hours at room temperature. […] TR-FRET signal is plotted and IC50 and Ki values are calculated in the same manner as the fluorescence polarization anisotropy based competition assays.

Test [2] relates to H929 human cancer cell lines. Nature of the test: Cellular viability / proliferation (Cell TiterGlo, 72 h). The format is cell-based. A digest of the protocol: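 1,000 cells/well, 10% FBS medium; compound added at 24 h, 2-fold dilutions from 50 μM top, DMSO <1% final. 72 h exposure, CellTiterGlo 30 min RT dark, luminescence read. IC50 by 4-parameter fit.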
In general terms: Cellular ATP, detected with luciferase, serves as a proxy for viable cell number.

[3] abbreviates: Homo sapiens, NCI-H929, 72 h, read-out: GI50 on cellular proliferation of H929 human cancer cell lines, H929 cells, 72 h, Cell TiterGlo, 10% FBS.

Like-named read-outs stand apart in the source and are kept apart here.

Sequence of Mcl-1 (Q07820 172-327): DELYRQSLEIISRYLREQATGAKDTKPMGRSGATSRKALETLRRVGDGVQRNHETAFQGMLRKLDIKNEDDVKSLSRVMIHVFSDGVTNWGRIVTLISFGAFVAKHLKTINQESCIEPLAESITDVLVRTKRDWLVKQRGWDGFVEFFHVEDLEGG

Consider `COc1ccc(N2C[C@@H](C)n3c(c(CCCOc4cc(C)c(Cl)c(C)c4)c4ccc(Cl)c(-c5c(C)nn(C)c5C)c43)C2=O)c2c1c(C(=O)O)cn2Cc1ccccn1` [Example 617, (R)-7-(7-chloro-10-(3-(4-chloro-3,5-dimethylphenoxy)propyl)-4-methyl-1-oxo-6-(1,3,5-trimethyl-1H-pyrazol-4-yl)-3,4-dihydropyrazino[1,2-a]indol-2(1H)-yl)-4-methoxy-1-(pyridin-2-ylmethyl)-1H-indole-3-carboxylic acid], for which, in test [1], the Ki is less than 0.2 nM. The GI50 in test [2] (setting [3]) came out at 440 nM.
Take `COCCn1cc(N2C[C@@H](C)n3c(c(CCCOc4cc(C)c(Cl)c(C)c4)c4ccc(Cl)c(-c5c(C)nn(C)c5C)c43)C2=O)c2cc(-c3ncn(CC4CN(C(C)=O)C4)n3)ccc21` [Example 618, (R)-2-(5-(1-((1-Acetylazetidin-3-yl)methyl)-1H-1,2,4-triazol-3-yl)-1-(2-methoxyethyl)-1H-indol-3-yl)-7-chloro-10-(3-(4-chloro-3,5-dimethylphenoxy)propyl)-4-methyl-6-(1,3,5-trimethyl-1H-pyrazol-4-yl)-3,4-dihydropyrazino[1,2-a]indol-1(2H)-one]: the Ki in test [1] stood at 3.8 nM. For the same compound, the GI50 in test [2] (setting [3]) amounted to 360 nM.
On to `COc1ccc(N2C[C@@H](C)n3c(c(CCCOc4cc(C)c(Cl)c(C)c4)c4ccc(Cl)c(-c5c(C)nn(C)c5C)c43)C2=O)c2c1c(C(=O)O)cn2Cc1cc(C)ccn1` [Example 619, (R)-7-(7-chloro-10-(3-(4-chloro-3,5-dimethylphenoxy)propyl)-4-methyl-1-oxo-6-(1,3,5-trimethyl-1H-pyrazol-4-yl)-3,4-dihydropyrazino[1,2-a]indol-2(1H)-yl)-4-methoxy-1-((4-methylpyridin-2-yl)methyl)-1H-indole-3-carboxylic acid], for which, in test [1], the inhibitory constant (Ki) was 0.26 nM. The GI50 in test [2] (setting [3]) was found to be 470 nM.
On to `Cc1cc(OCCCc2c3n(c4c(-c5c(C)nn(C)c5C)c(Cl)ccc24)[C@H](C)CN(c2cn(CC(N)=O)c4ccc(C(=O)O)cc24)C3=O)cc(C)c1Cl` [Example 620, (R)-1-(2-amino-2-oxoethyl)-3-(7-chloro-10-(3-(4-chloro-3,5-dimethylphenoxy)propyl)-4-methyl-1-oxo-6-(1,3,5-trimethyl-1H-pyrazol-4-yl)-3,4-dihydropyrazino[1,2-a]indol-2(1H)-yl)-1H-indole-5-carboxylic acid], for which the Ki in test [1] was less than 0.2 nM. Further, in test [2] (setting [3]), the GI50 was 7600 nM.
On to `Cc1cc(OCCCc2c3n(c4c(-c5c(C)nn(C)c5C)c(Cl)ccc24)[C@H](C)CN(c2cc(CN4CCOCC4)cc4cc(C(=O)O)n(C)c24)C3=O)cc(C)c1Cl` [Example 623, (R)-7-(7-chloro-10-(3-(4-chloro-3,5-dimethylphenoxy)propyl)-4-methyl-1-oxo-6-(1,3,5-trimethyl-1H-pyrazol-4-yl)-3,4-dihydropyrazino[1,2-a]indol-2(1H)-yl)-1-methyl-5-(morpholinomethyl)-1H-indole-2-carboxylic acid], for which, in test [1], the Ki was less than 0.2 nM. In addition, the GI50 in test [2] (setting [3]) is less than 200 nM.
Take `COCCn1cc(N2C[C@@H](C)n3c(c(CCCOc4cc(C)c(Cl)c(C)c4)c4ccc(Cl)c(-c5c(C)nn(C)c5C)c43)C2=O)c2cc(-c3ncn(CC4CCOCC4)n3)ccc21` [Example 624, (R)-7-Chloro-10-(3-(4-chloro-3,5-dimethylphenoxy)propyl)-2-(1-(2-methoxyethyl)-5-(1-((tetrahydro-2H-pyran-4-yl)methyl)-1H-1,2,4-triazol-3-yl)-1H-indol-3-yl)-4-methyl-6-(1,3,5-trimethyl-1H-pyrazol-4-yl)-3,4-dihydropyrazino[1,2-a]indol-1(2H)-one]: in test [1], the Ki worked out at 9.6 nM. The GI50 in test [2] (setting [3]) turned out to be 430 nM.
For the compound `COCCn1cc(C(=O)O)c2c(OC)ccc(N3C[C@@H](C)n4c(c(CCCOc5cc(C)c(Cl)c(C)c5)c5ccc(Cl)c(-c6c(C)nn(C)c6C)c54)C3=O)c21` [Example 625, (R)-7-(7-chloro-10-(3-(4-chloro-3,5-dimethylphenoxy)propyl)-4-methyl-1-oxo-6-(1,3,5-trimethyl-1H-pyrazol-4-yl)-3,4-dihydropyrazino[1,2-a]indol-2(1H)-yl)-4-methoxy-1-(2-methoxyethyl)-1H-indole-3-carboxylic acid], the inhibition constant (Ki) in test [1] is 0.22 nM. In addition, in test [2] (setting [3]), the GI50 came to 420 nM.
Consider `Cc1cc(OCCCc2c3n(c4c(-c5c(C)nn(C)c5C)c(Cl)ccc24)[C@H](C)CN(c2cc(C(=O)N4CCN(C)CC4)cc4cc(C(=O)O)n(C)c24)C3=O)cc(C)c1Cl` [Example 626, (R)-7-(7-chloro-10-(3-(4-chloro-3,5-dimethylphenoxy)propyl)-4-methyl-1-oxo-6-(1,3,5-trimethyl-1H-pyrazol-4-yl)-3,4-dihydropyrazino[1,2-a]indol-2(1H)-yl)-1-methyl-5-(4-methylpiperazine-1-carbonyl)-1H-indole-2-carboxylic acid], for which the Ki in test [1] was less than 0.2 nM. Moreover, in test [2] (setting [3]), the GI50 came out at 4400 nM.
In the same order, the values of `CCc1ccnc(Cn2c(C(=O)O)cc3cc(C)cc(N4C[C@@H](C)n5c(c(CCCOc6cc(C)c(Cl)c(C)c6)c6ccc(Cl)c(-c7c(C)nn(C)c7C)c65)C4=O)c32)c1` [Example 627, (R)-7-(7-chloro-10-(3-(4-chloro-3,5-dimethylphenoxy)propyl)-4-methyl-1-oxo-6-(1,3,5-trimethyl-1H-pyrazol-4-yl)-3,4-dihydropyrazino[1,2-a]indol-2(1H)-yl)-1-((4-ethylpyridin-2-yl)methyl)-5-methyl-1H-indole-2-carboxylic acid] are less than 0.2 nM and less than 200 nM.
With `Cc1cc(OCCCc2c3n(c4c(-c5c(C)nn(C)c5C)c(Cl)ccc24)[C@H](C)CN(c2cc(CN4CCN(C)C(=O)C4)cc4cc(C(=O)O)n(C)c24)C3=O)cc(C)c1Cl` [Example 628, (R)-7-(7-chloro-10-(3-(4-chloro-3,5-dimethylphenoxy)propyl)-4-methyl-1-oxo-6-(1,3,5-trimethyl-1H-pyrazol-4-yl)-3,4-dihydropyrazino[1,2-a]indol-2(1H)-yl)-1-methyl-5-((4-methyl-3-oxopiperazin-1-yl)methyl)-1H-indole-2-carboxylic acid], in test [1], the Ki is less than 0.2 nM. Besides, in test [2] (setting [3]), the GI50 turned out to be 440 nM.
Turning to `CC(=O)N1CCN(C(=O)c2cc(N3C[C@@H](C)n4c(c(CCCOc5cc(C)c(Cl)c(C)c5)c5ccc(Cl)c(-c6c(C)nn(C)c6C)c54)C3=O)c3c(c2)cc(C(=O)O)n3C)CC1` [Example 629, (R)-5-(4-acetylpiperazine-1-carbonyl)-7-(7-chloro-10-(3-(4-chloro-3,5-dimethylphenoxy)propyl)-4-methyl-1-oxo-6-(1,3,5-trimethyl-1H-pyrazol-4-yl)-3,4-dihydropyrazino[1,2-a]indol-2(1H)-yl)-1-methyl-1H-indole-2-carboxylic acid], the inhibition constant Ki in test [1] is less than 0.2 nM. Also, the GI50 in test [2] (setting [3]) was found to be 560 nM.
As for `Cc1cc(OCCCc2c3n(c4c(-c5c(C)nn(C)c5C)c(Cl)ccc24)[C@H](C)CN(c2cc(C(=O)N4CCN(C)C(=O)C4)cc4cc(C(=O)O)n(C)c24)C3=O)cc(C)c1Cl` [Example 630, (R)-7-(7-chloro-10-(3-(4-chloro-3,5-dimethylphenoxy)propyl)-4-methyl-1-oxo-6-(1,3,5-trimethyl-1H-pyrazol-4-yl)-3,4-dihydropyrazino[1,2-a]indol-2(1H)-yl)-1-methyl-5-(4-methyl-3-oxopiperazine-1-carbonyl)-1H-indole-2-carboxylic acid], the inhibition constant Ki in test [1] was less than 0.2 nM. Besides, the GI50 in test [2] (setting [3]) stood at 9000 nM.
Regarding `COCCOCCOc1cc(N2C[C@@H](C)n3c(c(CCCOc4cc(C)c(Cl)c(C)c4)c4ccc(Cl)c(-c5c(C)ncnc5C)c43)C2=O)c2c(c1)cc(C(=O)O)n2C` [Example 631, (R)-7-(7-chloro-10-(3-(4-chloro-3,5-dimethylphenoxy)propyl)-6-(4,6-dimethylpyrimidin-5-yl)-4-methyl-1-oxo-3,4-dihydropyrazino[1,2-a]indol-2(1H)-yl)-5-(2-(2-methoxyethoxy)ethoxy)-1-methyl-1H-indole-2-carboxylic acid], the Ki in test [1] is less than 0.2 nM. Besides, the GI50 in test [2] (setting [3]) amounted to 300 nM.
In the same order, the values of `COCCOc1ccc(N2C[C@@H](C)n3c(c(CCCOc4cc(C)c(Cl)c(C)c4)c4ccc(Cl)c(-c5c(C)nn(C)c5C)c43)C2=O)c2c1cc(C(=O)O)n2Cc1cc(C)ccn1` [Example 632, (R)-7-(7-chloro-10-(3-(4-chloro-3,5-dimethylphenoxy)propyl)-4-methyl-1-oxo-6-(1,3,5-trimethyl-1H-pyrazol-4-yl)-3,4-dihydropyrazino[1,2-a]indol-2(1H)-yl)-4-(2-methoxyethoxy)-1-((4-methylpyridin-2-yl)methyl)-1H-indole-2-carboxylic acid] are less than 0.2 nM and 220 nM.
Turning to `COCCOCCOc1cc(N2C[C@@H](C)n3c(c(CCCOc4cc(C)c(Cl)c(C)c4)c4ccc(Cl)c(-c5c(C)nn(C)c5C)c43)C2=O)c2c(c1)cc(C(=O)O)n2C` [Example 633, (R)-7-(7-chloro-10-(3-(4-chloro-3,5-dimethylphenoxy)propyl)-4-methyl-1-oxo-6-(1,3,5-trimethyl-1H-pyrazol-4-yl)-3,4-dihydropyrazino[1,2-a]indol-2(1H)-yl)-5-(2-(2-methoxyethoxy)ethoxy)-1-methyl-1H-indole-2-carboxylic acid], in test [1], the Ki was less than 0.2 nM. The GI50 in test [2] (H929 cells, 72 h, Cell TiterGlo, 10% FBS, read-out: GI50 on cellular proliferation of H929 human cancer cell lines) is less than 200 nM.

These data come from patent US11596639B2, “Substituted indole Mcl-1 inhibitors” (Vanderbilt University, priority 2016, dated 2023).
